Common to all, as to assay type: cell-based
Test [1] deals with Smooth muscle cells derived from rat aorta vessels. The test can be described thus: Potential changes of smooth muscle cells on a semiconductor substrate stimulated with norepinephrine (Example 7). Particulars: 10 μM norepinephrine; potential changes measured for 60 seconds; FIG. 15. As to the method:
Smooth muscle cells derived from rat aorta vessels were cultured on a specially treated semiconductor substrate.
The semiconductor substrate has 100 through holes, each of which has a diameter of 5 μm with the pitch of the through holes being 30 μm, in an area of 1 mm^2. A surface of the semiconductor substrate was coated with 0.01% (w/v) collagen type I solution (Sigma C8919) at a density of 10 μg/cm^2, which was in turn allowed to react at 37° C. for 30 minutes, followed by air drying. Smooth muscle cells derived from rat aorta vessels were cultured on the substrate cleansed with sterilized water. After three days of the culture, the following experiment was conducted.
When measuring ion channel activity, the vessel smooth muscle cells were suctioned by applying a predetermined pressure from the rear side of the semiconductor substrate so that the cells were made to contact the semiconductor substrate. […] In an experimental system, the smooth muscle cells were stimulated with 10 μM norepinephrine, and potential changes were measured for 60 seconds. […] Note that the collection of time-series data was started 10 milliseconds after the start of the experiment, so that measured data was not extracted for the time lag. Thereafter, standard deviations were calculated every 100 milliseconds from the time-series data, thereby clearly extracting ion channel activities due to the stimulant. […]

The test system of test [2] is neuron prepared from Lymnaea stagnails. As to the kind of experiment: Electrical signal of a neuron under glutamate, average of standard deviations (Example 1). Particulars: 0, 0.1, 0.3, 1, 3, 10, 30, or 100 μM glutamate; standard deviation of 100 milliseconds; FIG. 6. The text has this:
FIG. 2 is a schematic diagram showing a configuration of an apparatus and steps used in a signal extracting method according to Example 1 of the present invention. The apparatus comprises a measurement section 101 for continuously measuring action potential generated from a neuron; a computer 100 incorporating a hard disk storing a program for executing a standard deviation calculation step 102 for calculating a standard deviation of measured data every predetermined time, an average calculation step 105 for calculating an average of standard deviation values output every predetermined time, and an activity calculation step 108 for calculating an ion channel activity from an average output from the average calculation step 105; and a data displaying section 110, such as CRT, for displaying the ion channel activity.
The apparatus was used to measure an electrical signal of a neuron which was actually prepared from Lymnaea stagnails where 0, 0.1, 0.3, 1, 3, 10, 30, or 100 μM glutamate was applied to the neuron. The resultant measured data spanning […] was divided into pieces of subdata spanning 100 milliseconds, for each of which a standard deviation was in turn calculated. The average of the standard deviations was plotted in FIG. 6. […]

The test system is the same in test [3]. The test can be described thus: Extracellular recording of a neuron before and after glutamate, normal distribution of standard deviations (Example 2). Particulars: after application of 50 μM glutamate, before application 0.488. The text has this:
FIG. 3 is a schematic diagram showing a configuration of an apparatus and steps used in a signal extracting method according to Example 2 of the present invention. The apparatus comprises a measurement section 101 for continuously measuring action potential generated from a neuron; a computer 100 incorporating a hard disk storing a program for executing a standard deviation calculation step 102 for calculating a standard deviation of measured data every predetermined time, a normal distribution approximation step 103 for dividing a standard deviation group consisting of a plurality of resultant standard deviations into a plurality of classes having a predetermined width of standard deviation as a unit, and plotting each standard deviation on a coordinate system in which X axis represents the class and Y axis represents the number of the standard deviations existing in each class, an average and half-width calculation step 106 for approximating the resultant graph to a normal distribution, and calculating the average and half-width of the resultant normal distribution, and an activity categorization step 109 for categorizing an ion channel activity based on the resultant average and half-width; and a data displaying section 110, such as CRT, for displaying the ion channel activity. […]

The test system is the same in test [4]. As to the kind of experiment: Conventional intracellular recording of a neuron before and after glutamate, same signal processing (Example 2, FIG. 8). The settings on record: after application of glutamate, before application 0.181. The text has this:
The curve to the left in FIG. 8 is a histogram of standard deviation values every 5 milliseconds before application of glutamate. The curve to the right in FIG. 8 is a histogram of standard deviation values every 5 milliseconds after the application of glutamate. As indicated in these figures, the averages and half-widths of graphs obtained by approximating the histograms, before and after the application of glutamate, to normal distributions are 0.181 and 0.041, respectively, before the application and 0.534 and 0.204, respectively, after the application. Comparing between the results of FIGS. 7 and 8, the result of the extracellular recording method is similar to that of the intracellular recording method.

The test system is the same in test [5].

In the case of `NC[C@H](O)c1ccc(O)c(O)c1` [norepinephrine], the “average of the normal distribution of standard deviations every 100 milliseconds (ion channel activities)” value in test [1] is “clearly shifted toward higher class values than when no drug was applied”.

`N[C@@H](CCC(=O)O)C(=O)O` [glutamate]: the “average of the standard deviations (ion channel activity)” value in test [2] is listed as “dependent on glutamate concentration”. Also, the “average of normal distribution of standard deviation values every 5 milliseconds” value in test [3] is listed as 0.733; in test [4], 0.534. Besides, in test [5], the “average of the distribution of standard deviation values every 5 milliseconds” value is reported as “shifted toward the right along the horizontal axis”.

In the case of `NC1=N[C@H](O)[C@H]2[C@H]3O[C@]4(O)O[C@@H]([C@@H](O)[C@@]2(N1)[C@@H]4O)[C@]3(O)CO` [TTX, tetrodotoxin], the “average of the distribution of standard deviation values every 5 milliseconds” value in test [5] was “shifted along the horizontal axis toward the left further than the control”.

These data come from patent publication US6999905B2, “Method for extracting significant signal, recording medium and program” (priority 2002, dated 2006).
